Results reported in EP2271341B1, “SPECIFIC INHIBITORS FOR VASCULAR ENDOTHELIAL GROWTH FACTOR RECEPTORS” (Nova Southeastern University, priority 2008, dated 2009).

How the values were obtained:
[1] = test system: Human umbilical vein endothelial cell; assay: In Vitro Angiogenesis Assay (morphogenesis / tube formation on Matrigel, ECMatrix kit); assay type: cell-based; design: key to Results: Individual cells, well separated (+++++); Cells begin to migrate and align themselves (++++); Cells begin to line but not sprouting (+++); Visible Sprouting (++); Closed polygons begins to form (+); details: for Results: score of the extent of cellular networks, HUVECs 10^4 cells/well, inhibitors 1mM and 10 mM, 8 hours incubation at 37 °C, higher score = greater inhibition of angiogenesis
Procedure: Human umbilical vein endothelial cell was purchased from Cambrex Co. (East Rutherford, New Jersey) and maintained in EGM (Endothelial Growth Medium) supplemented with 2% FBS, 0.1% EGF, 0.1% Hydrocortisone, 0.1% GA-1000 and 0.4% BBE.
The morphogenesis assay on Matrigel was performed according to the manufacturer's instructions (Chemicon International). The ECMatrix™ kit consists of laminin, collagen type IV, heparan sulfate, proteoglycans, entactin and nidogen. It also contains various growth factors (TGF-β, FGF) and proteolytic enzymes (plasminogen, tPA, MMPs) that are normally produced in EHS tumors. The incubation condition was optimized for maximal tube-formation as follows: 50µl of EC Matrix™ was suitably diluted in the ratio 9:1 with 10X diluent buffer and used for coating the 96-well plate. The coated plates were incubated at 37° C for 1 hr. to allow the Matrix solution to solidify. In the meantime the HUVECs that were cultured for 24 hours in EGM with 2% FBS was trypsinised and resuspended in the growth media and the cells were counted. After 1 hr. pre-incubation of the plate with Matrix solution, the HUVECs were plated at 10^4 cells/well in the absence or in the presence of different VEGFR inhibitors (1mM and 10 mM). After 8 hours incubation at 37 °C, the cell three-dimensional organization (cellular network structures) was examined under an inverted photomicroscope. Each treatment was performed in triplicate.
Activated endothelial cells form cellular networks (mesh like structures) resembling capillary tubes sprouting into the stromal space. The formation of these cellular networks is a dynamic process, which started migration and alignment of cells followed by the development of capillary tubes like structures, sprouting of new branches and finally the formation of the cellular networks. Although this in vitro angiogenesis kit is designed only as a qualitative assay, we have made an attempt to quantitate the degree of angiogenesis using a scoring method. The scoring was based on the extent of the cellular networks that were observed as follows: • Individual cells, well separated (+++++) • Cells begin to migrate and align themselves (++++) • Cells begin to line but not sprouting (+++) • Visible Sprouting (++) • Closed polygons begins to form (+).
According to our qualitative assessment, the higher the scoring the greater the efficiency of the compound for inhibiting endothelial cell mediated angiogenesis.

[2] = test system: GI-101A; assay: Cytotoxicity towards breast carcinoma cell line GI-101A; assay type: cell-based; details: GI-101A breast carcinoma cell line
[3] = test system: VEGFR; assay: Assay of VEGF Receptor Tyrosine Kinase Activity (VEGFR immunoprecipitated from cell lysate, non-radioactive PTK ELISA); assay type: biochemical; details: VEGFR immunoprecipitated from cell lysate with VEGFR specific antibody, read-out: IC50 for inhibiting VEGFR kinase
From the text: Protein Tyrosine Kinases (PTKs) perform a critical role in signal transduction pathways that control cell proliferation, differentiation, metabolism, and apoptosis. Phosphorylation of proteins by PTKs is essential for the regulation of these biological mechanisms and defects in these pathways may result in a number of human diseases, including cancer. The important aspect of these enzymes in cellular regulation is accentuated by the fact that for a large number of kinases a corresponding viral oncogene product has been identified. […] CHEMICON's non-radioactive Tyrosine Kinase Activity Assay provides a simple, convenient and specific method for quantification and comparative determination of a wide range of PTKs. […]
The non-radioactive Tyrosine Kinase Activity Assay Kit consists of a synthetic Biotinylated Peptide Substrate, a Biotinylated Phosphopeptide, purified Phosphotyrosine specific monoclonal antibody conjugated to horseradish peroxidase (HRP) and other components required to perform 96 ELISA-based assays. […] The quantity of phosphate incorporated into the tyrosine kinase substrate is determined utilizing the phosphopeptide standard curve. […] The assay reaction would be terminated by the addition of 100 µl of stop solution and finally, the absorbance was measured on a standard microplate reader at 450nm. […]

[4] = test system: MCF-7; assay: Cytotoxicity towards breast carcinoma cell line MCF-7; assay type: cell-based; details: MCF-7 breast carcinoma cell line

Which Results [1] does the source give for `CCC(CNCCO)Nc1nc2c(c(=O)n(C)c(=O)n2C)n1Cc1ccccc1` (centres unmarked) [Example 7] here?
Its Results is “++”.

With `CCCCCCCCCCCCCCCCOc1ccc(C(NNS(=O)(=O)c2cccc(C(=O)O)c2)N2CCCCC2)cc1` (centres unmarked) [Example 2] as the compound, how does the Results [1] read?
Its Results is “++++”.

How did the cytotoxicity [2] turn out when `COc1ccc(NCC(O)Cn2cnc3c2c(=O)n(C)c(=O)n3C)cc1` (centres unmarked) [Example 1] was run?
Its cytotoxicity is “produced cytotoxicity”.

And the IC50 [3]?
Its IC50 is 400 nM.

And the cytotoxicity [4]?
The cytotoxicity was “produced cytotoxicity”.

What about the EC50 ([1]; Homo sapiens, Endothelial cell, estimated, read-out: EC50 value for anti-antigenic effect) of the same compound?
The EC50 was 250 nM.

And the Results [1]?
Its Results is “+++++”.

Which Results [1] does the source give for `CCCCCCCCCCCCCCCCCCOc1ccc(C(=O)CC(=O)Nc2ccc(Sc3cccc(C(=O)O)c3)c(C(=O)O)c2)cc1` [Example 5] here?
Its Results is “+++”.
